# Reference: patent US20160083643A1, “ENHANCED OIL RECOVERY METHOD EMPLOYING A BIODEGRADABLE BRINE TOLERANT FOAM-FORMING COMPOSITION” (DOW GLOBAL TECHNOLOGIES LLC, priority 2013, published 2016)
# How the values were obtained:
# [1] = system: Desmondesmus subspicatus; test: Fresh water algal growth inhibition test (OECD 201); assay type: cell-based; conditions: isolated, purified component from Example 3; read-out: Fresh Water algal growth inhibition test with Desmondesmus subspicatus ErC50/0-3
# Source text: Aquatic Toxicity procedures and test methods are based on the recommendations of the following guidelines: Organization for Economic Cooperation and Development (OECD): OECD Guidelines for the Testing of Chemicals, “Freshwater Alga and Cyanobacteria, Growth Inhibition Test”, Procedure 201, adopted 23 Mar. 2006; European Economic Community (EEC): Commission directive 92/69/EEC of 31 Jul. 1992, Methods for the determination of ecotoxicity, C.3., “Algal Inhibition Test”. Preferably the surfactants of the present invention have a toxicity profile (EC50)>1 and </=10 mg/l; more preferably an EC50>10 and </=100 mg/l; and most preferably an EC50>100 mg/l.
# The study procedures and test methods for aquatic toxicity are based on the recommendations of the following guidelines: Organization for Economic Cooperation and Development (OECD): OECD Guidelines for the Testing of Chemicals, “Freshwater Alga and Cyanobacteria, Growth Inhibition Test”, Procedure 201, adopted 23 Mar. 2006; European Economic Community (EEC): Commission directive 92/69/EEC of 31 Jul. 1992, Methods for the determination of ecotoxicity, C.3., “Algal Inhibition Test”.
# Data from the aquatic toxicity tests of the isolated and purified C12 monosulfonate (sodium 2-(dodecanyloxy)-3-hydroxypropane-1-sulfonate) and C12 disulfonate (sodium 2-(dodecanyloxy)propane-1,3-disulfonate) from Example 3 is shown in Table 2. […]
# [2] = system: Daphna magna; test: 48-hour acute toxicity to Daphna magna; assay type: in vivo; conditions: isolated, purified component from Example 3
SMILES,EC50 [1],EC50 [2]
"CCCCCCCCCCCCOC(CS(=O)(=O)[O-])CS(=O)(=O)[O-].[Na+].[Na+] [C12 disulfonate component, sodium 2-(dodecanyloxy)propane-1,3-disulfonate]",> 100 µg/mL,> 100 µg/mL
"CCCCCCCCCCCCOC(CO)CS(=O)(=O)[O-].[Na+] (stereo not shown) [C12 monosulfate component, sodium 2-(dodecanyloxy)-3-hydroxypropane-1-sulfonate]",> 100 µg/mL,> 100 µg/mL
